We go through 18 compounds from patent US4550107A, “Condensed diazepinones, their compositions and methods of use as pharmaceuticals” (Dr. Karl Thomae GmbH, priority 1984, dated 1985).

The IC50 is the concentration that inhibits the measured activity by half. As a reminder, the ED50 is the midpoint of the dose-response relation.

In one data set the test system is heart rate. The data set is described as follows: Heart rate increasing activity (tachycardia) in the conscious dog. To be noted: Canis lupus familiaris, iv; dose increasing heart rate by 50 beats per minute; conscious dogs; read-out: Tachycardia (dog) ED50. The class given is in vivo. The procedure: (§1) The methods used have the objective of confirming the selectivity of the antimuscarinic acitivity. Those substances which are selected on the basis of "in vitro" investigations are tested for:
1. tachycardiac effect in conscious dogs;
1. Heart rate increasing activity in the conscious dogs
The substances are injected intravenously and the heart rate is measured with the aid of a tachygraph. After a control period, increasing doses of the compound are administered in order to increase the heart rate. The next dose is injected when the effect of the preceding dose is no longer visible. […] Each substance is tested on 3 to 5 dogs.

For data set [1], the target named is T1, muscarinic receptors (heart) (Rattus norvegicus, UniProt P10980).
T1 construct: The whole heart is cut up with scissors; All the organs are then homogenised in a Potter apparatus; from tissue; host or cells: rat whole heart, homogenised (1:250)
T1 sequence (P10980 1-466): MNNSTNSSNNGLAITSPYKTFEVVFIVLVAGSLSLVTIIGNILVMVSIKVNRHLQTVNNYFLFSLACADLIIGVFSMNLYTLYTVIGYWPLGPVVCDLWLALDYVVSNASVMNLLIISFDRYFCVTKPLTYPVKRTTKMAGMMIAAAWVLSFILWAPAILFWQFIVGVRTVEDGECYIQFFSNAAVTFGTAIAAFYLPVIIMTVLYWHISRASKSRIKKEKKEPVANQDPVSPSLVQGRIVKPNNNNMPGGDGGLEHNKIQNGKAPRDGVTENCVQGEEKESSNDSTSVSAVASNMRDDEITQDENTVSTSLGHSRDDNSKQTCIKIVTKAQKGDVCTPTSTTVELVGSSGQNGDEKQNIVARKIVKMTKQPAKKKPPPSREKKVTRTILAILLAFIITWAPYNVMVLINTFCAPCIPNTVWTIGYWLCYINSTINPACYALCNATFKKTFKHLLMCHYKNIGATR
The data set is described as follows: Receptor binding tests: inhibition of specific 3H-N-methylscopolamine binding, whole heart. The note with it: whole heart homogenate 1:250; 0.3 nM 3H-NMS; 30° C., 45 min, pH 7.4. Also noted: species or system Sprague-Dawley rats. The procedure: (§2) B. Studies of binding to muscarinic receptors: determining the IC50 value
(§3) The organ donors are Sprague-Dawley rats weighing from 180-220 g. After the removal of the heart, stomach and cerebral cortex, all the other steps are carried out in ice-cold Hepes-HCl buffer (pH 7.4; 100 m molar NaCl, 10 m molar MgCl2). The whole heart is cut up with scissors. All the organs are then homogenised in a Potter apparatus. For the bonding test, the homogenised organs are diluted as follows:
(§4) The homogenised organs are incubated at a specific concentration of the radioligand and with a series of concentrations of the non-radioactive test substances in an Eppendorf centrifugal test tube at 30° C. Incubation lasts 45 minutes. The radioligand is 0.3 n molar ^3 H-N-methylscopolamine (^3 H-NMS). After incubation has been ended by centrifuging at 14,000 g, the radioactivity in the pellet is determined. It represents the sum of specific and non-specific binding of ^3 H-NMS. The proportion of non-specific binding is defined as the radioactivity which binds in the presence of 1 μmolar quinuclidinyl benzylate. Four measurements are made in each case. The IC50 values of the non-labeled test substances are determined graphically. They represent the concentration of test substance at which the specific binding of ^3 H-NMS to the muscarinic receptors in the various organs is inhibited by 50%.

A further data set deals with gastric acid secretion. The data set is described as follows: Inhibition of gastric acid secretion in pylorus-ligated rats (Shay rat). The class given is in vivo, male Wistar rats. The note with it: iv, 2 h, i.v., 5 min before pylorus ligature, volume or acid output reduced by 50%. The procedure:
as §1
2. inhibitory effect on gastric acid secretion in pylorous-ligated rats; and
2. Inhibition of secretion in rats
Increasing doses of the substance are injected intravenously into male Wistar rats (10 rats per group) 5 minutes before the ligature of the pylorus. The rats are killed 2 hours later and both the volume of gastric acid and also the "acid output" are determined by titration. The dosage of substance which reduces either the volume or the acid output by 50% is determined.

Data set [2] concerns the target muscarinic receptors (cerebral cortex). Put plainly: Receptor binding tests: inhibition of specific 3H-N-methylscopolamine binding, cerebral cortex. The note with it: cerebral cortex homogenate 1:3000; 0.3 nM 3H-NMS; 30° C., 45 min, pH 7.4. More on the design: species or system Sprague-Dawley rats. The procedure:
as §2, §3, §4

A short description of data set [3]: Stability of separated diastereoisomers (reversion into the original mixture). Type of data set: physicochemical. The note with it: for stability in crystalline form: temperature below the melting point. An excerpt:
The base-substituted condensed diazepinones of formula I according to the invention contain up to two independent chiral elements, including an asymmetric carbon atom in the side chain. The second chiral element is the acylated tricyclic moiety itself, which can occur in two mirror-image forms. The nature of the tricyclic compound determines whether the energy barrier for inversion at this center is so high that the individual isomers are stable at ambient temperature and capable of being isolated.
The title compound is prepared analogously to Example 2 from 5-(chloroacetyl)-5,10-dihydro-11H-dibenzo[b,e][1,4]diazepin-11-one and D,L-2-[(4-methyl-1-piperazinyl)methyl]-piperidine to give colorless crystals, mp. 200°-202° C. (acetonitrile/activated charcoal). According to thin layer chromatography (Polygram® SIL G/UV254; eluant: dichloromethane/ethyl acetate/cyclohexane/methanol/conc. ammonia 3.5:1.5:0.46: 0.46:0.06; RF approx. 0.25) it is a mixture of isomers in a quantity ratio of approximately 1:1. Preparative separation is carried out by the following method:
(a) By liquid chromatography (HPLC):
Mobile Phase: Methylene chloride/cyclohexane/methanol/conc. ammonia (200:210:40:0.5 v/v);
In each case, a solution (100 μl) of the diastereoisomer mixture (15.2 mg) is injected into the mobile phase (1 ml) and thus placing the substance (1.5 mg) on the column.
(b) By liquid chromatography on a Jobin-Yvon chromatospac Prep using Li Chroprep Si 60, 25-40 μm (Merck-Darmstadt, Art. 9390) under a pressure of 10 bar.

“And” between values parts separate entries of the source, which are not always exact repeats. Equal values may be shown once.

Consider `CCN(CC)CC1CCCCN1CC(=O)N1c2ccccc2C(=O)Nc2cccnc21` (racemic) [A], for which, in the data set on heart rate, the ED (increase of 50 beats per minute) is 0.103 mg/kg. In data set [1], the IC50 is 0.14 µM and 0.15 µM. The ED50 with gastric acid secretion was more than 10 mg/kg. On to `CN(CC1CCCCN1CC(=O)N1c2ccccc2C(=O)Nc2cccnc21)[C@H]1CC[C@H](O)CC1` (relative stereo) [K], for which the IC50 came to 0.07 µM in data set [1] and 1.1 µM in data set [2]. As for `CN1CCN(CC2CCCCN2CC(=O)N2c3ccccc3NC(=O)c3ccccc32)CC1` (single isomer, unassigned) [Isomer I, 5,10-Dihydro-5-[[2-[(4-methyl-1-piperazinyl)methyl]-1-piperidinyl]-acetyl]-11H-dibenzo[b,e][1,4]diazepin-11-one], the “stability in crystalline form” value in data set [3] is “completely stable”. Further, in data set [3] (hplc mobile phase solution, ambient temperature, mobile phase methylene chloride/cyclohexane/methanol/conc. ammonia, read-out: reverts into the original mixture, t1/2), the half-life is less than 216 h.

For the compound `CN1CCN(CC2CCCCN2CC(=O)N2c3ccccc3NC(=O)c3ccccc32)CC1` (single isomer, unassigned) [Isomer II, 5,10-Dihydro-5-[[2-[(4-methyl-1-piperazinyl)methyl]-1-piperidinyl]-acetyl]-11H-dibenzo[b,e][1,4]diazepin-11-one], the “stability in crystalline form” value in data set [3] is given as “completely stable”. Regarding `CN1CCN(CC(=O)N2c3ccccc3C(=O)Nc3cccnc32)CC1` [B], the ED (increase of 50 beats per minute) with heart rate amounted to 0.468 mg/kg. In addition, in the data set on gastric acid secretion, the ED50 was found to be 0.4 mg/kg. For `CN1C2CCC1CC(OC(=O)C(CO)c1ccccc1)C2` (centres unmarked) [C], the ED (increase of 50 beats per minute) in the data set with heart rate is 0.0077 mg/kg. `CN(C)CC1CCCCN1CC(=O)N1c2ccccc2C(=O)Nc2cccnc21` (centres unmarked) [D]: the half-maximal inhibitory concentration (IC50) in data set [1] is 0.15 µM and 0.13 µM; in data set [2], 1.5 µM. As for `CN(C)CCC1CCCCN1CC(=O)N1c2ccccc2C(=O)Nc2cccnc21` (centres unmarked) [E], the IC50 in data set [1] is 0.17 µM; in data set [2], 1.3 µM.

For the compound `CCN(CC)CC1CCCCN1CC(=O)N1c2ccccc2NC(=O)c2ccccc21` (centres unmarked) [F], the IC50 in data set [1] is 0.15 µM and 0.1 µM; in data set [2], 0.75 µM and 1 µM.

Regarding `CCN(CC)CC1CCCCN1CC(=O)N1c2ccccc2NC(=O)c2cscc21` (centres unmarked) [G], the figures for the IC50 in data set [1] and in data set [2] were 0.22 µM and 2.2 µM, respectively. For `CCN(CC)C[C@@H]1CCCN1CC(=O)N1c2ccccc2C(=O)Nc2cccnc21` [H], the values for the IC50 in data set [1] and in data set [2] were 0.4 µM and 4.5 µM, respectively. On to `CCN(CC)C[C@@H]1CCCN1CC(=O)N1c2ccccc2NC(=O)c2ccccc21` [I], for which the values for the half-maximal inhibitory concentration (IC50) in data set [1] and in data set [2] were 0.09 µM and 0.8 µM, respectively. For `CN(CC1CCCN(CC(=O)N2c3ccccc3C(=O)Nc3cccnc32)C1)C1CCCCC1` (centres unmarked) [L], the IC50 in data set [1] amounted to 0.019 µM; in data set [2] it was 0.085 µM. Regarding `CCN(CC)CC1CCCN(CC(=O)N2c3ccccc3NC(=O)c3ccccc32)C1` (centres unmarked) [M], the results for the IC50 in data set [1] and in data set [2] were 0.035 µM and 0.1 µM, respectively. `CN(CC1CCCCN1CC(=O)N1c2ccccc2NC(=O)c2ccccc21)C1CCCCC1` (centres unmarked) [N]: the values for the IC50 in data set [1] and in data set [2] were 0.013 µM and 0.05 µM, respectively.

Regarding `CN(CC1CCCN(CC(=O)N2c3ccccc3NC(=O)c3ccccc32)C1)C1CCCCC1` (centres unmarked) [O], the IC50 amounted to 0.0028 µM in data set [1] and 0.02 µM in data set [2]. On to `CN1CCCC1C1CCCN(CC(=O)N2c3ccccc3NC(=O)c3ccccc32)C1` (centres unmarked) [P], for which the 50% inhibitory concentration (IC50) in data set [1] was 0.017 µM; in data set [2] it was 0.12 µM. In the same order, the values of `CCCCN(C)CC1CCCCN1CC(=O)N1c2ccccc2NC(=O)c2ccccc21` (centres unmarked) [Q] are 0.018 µM and 0.1 µM.
